Tests used:
opto-α-syn-MOs = experiment: Autophagy in opto-α-syn-MOs kept in dark after blue light illumination; assay type: cell-based, human; settings: treatment only during dark condition after blue light illumination for six days
Procedure: (§1) Because autophagy can be activated by the inhibition of PI 3-kinase (PI3K) or the PDK1 pathway, it was tested whether treatment with BAG 956 can induce the autophagic flux to decrease α-syn aggregates in opto-α-syn mDA neurons and MOs.

α-syn PFF injected mice [1] = experiment: In vivo intrastriatal α-syn PFF mouse model, oral BAG 956 (behaviour, histology, biochemistry); settings: short-term: two months at 2 mg/kg or one month at 10 mg/kg after intrastriatal α-syn PFF injection
[2] = test system: human PD iPSC-derived mDA neurons treated with α-syn PFF; experiment: α-syn PFF model in non-OASIS human PD hiPSC-derived mDA neurons (TX-insoluble pS129-α-syn); assay type: cell-based; settings: α-syn PFF with compound for 14 days
Procedure: To validate the effects of these two compounds on the OASIS-independent model, α-syn PFF were treated with mouse primary neurons and non-OASIS-human PD hiPSC-derived mDA neurons with CDC 021 and BAG 956.

α-syn PFF injected mice [3] = experiment: In vivo intrastriatal α-syn PFF mouse model, oral BAG 956 (behaviour, histology, biochemistry)
Procedure: To test the neuroprotective potential of BAG 956, in vivo α-syn PFF mouse model was used for a short-term period. […] Next, BAG 956 efficacy was validated for long-term treatment on α-syn PFF mouse model by comprehensive behavioral and biochemical assays. Behavioral analysis was performed to evaluate the behavioral defect elicited by intrastriatal α-syn PFF injection and any restoration of behavioral dysfunction by oral administration of BAG 956 for 6 months at a low (2 mg/kg) or high (10 mg/kg) concentration after one-month recovery from α-syn PFF injection. PBS injected mice were treated vehicle or BAG956^high (10 mg/kg), whereas α-syn PFF injected mice were orally administered with vehicle, BAG 956^low (2 mg/kg), or BAG956^high (10 mg/kg) (FIG. 13A). […] The open field test (OFT) and elevated plus maze (EPM) were performed to evaluate locomotion, exploration, and anxiety behaviors. […] Next, hippocampal- or amygdala-dependent learning and memory based contextual or cued fear conditioning tests were performed. […] To examine whether the oral administration of BAG 956 could rescue the loss of DA neurons induced by intrastriatal α-syn PFF injection, the number of TH-positive neurons in the substantia nigra pars compacta (SNpc) was measured via an unbiased stereological counting analysis.

[4] = test system: α-syn PFF-treated opto-α-syn-mDA neurons; experiment: Autophagy markers (western blot) in α-syn PFF-treated mDA neurons; assay type: cell-based, human; settings: compared with control or CDC 021 treatment
Procedure: as §1

[5] = test system: PI3K-PDK1/AKT/mTOR signaling pathway; experiment: PI3K/PDK1 downstream target phosphorylation in ventral midbrain of α-syn PFF-injected mice; assay type: in vivo, mouse
From the text: Since PI3K-PDK1/AKT/mTOR signaling pathway plays a critical role in regulation of autophagy, it was investigated the effects of BAG 956 treatments on PFF models. […] Taken together, BAG 956 may act as an autophagy-enhancing drug through inhibition of the PI3K-PDK1/AKT/mTOR signaling pathway (FIG. 18I).

[6] = test system: blue light-illuminated opto-α-syn-mDA neurons; experiment: Autophagy and aggregate clearance in blue light-illuminated opto-α-syn-mDA neurons; assay type: cell-based, human
Procedure: as §1

[7] = oral, 6 months, both 2 mg/kg and 10 mg/kg
[8] = blue light-illuminated opto-α-syn-mDA neurons
[9] = mDA neurons exposed to blue light

## Cc1nc2cnc3ccc(C#Cc4cccnc4)cc3c2n1-c1ccc(C(C)(C)C#N)cc1 [BAG 956]
opto-α-syn-MOs
  LC3+ puncta and LC3+/5G4+ co-localized dots: consistent
α-syn PFF injected mice [1]
  pathologic pS129-α-syn immunoreactivity in TH neurons of the ventral midbrain: significantly reduced
[2]
  TX-insoluble pS129-α-syn: significant decrease
α-syn PFF injected mice [3]; long-term oral, 10 mg/kg
  pathologic pSer129-α-syn immunoreactivity in TH-positive neurons of the SN (IHC): significantly rescued
α-syn PFF injected mice [3]; oral, 10 mg/kg
  number of TH- and Nissl-positive stained DA neurons in SNpc (stereological counting): recovered
  protein levels of TH in ventral midbrain and striatum: rescued
  striatal TH-positive fiber density (IHC): rescued
α-syn PFF injected mice [3]; oral, 6 months, 2 mg/kg or 10 mg/kg, all groups
  endpoint body mass: No endpoint body mass differences
α-syn PFF injected mice [3]; oral, 6 months, 10 mg/kg
  time spent, number of entries in the far zone of the open arm of the EPM: significantly restored
  time spent, number of entries, travelled distance in the center zone of the OFT: significantly restored
α-syn PFF injected mice [3]; [7]
  contextual or cued fear conditioning: total freezing time and freezing episode: recovered
  fore- and hind-limb grip strength: dramatically recovered
  latency to fall from the rotarod test: dramatically recovered
α-syn PFF injected mice [3]; oral, both 2 mg/kg and 10 mg/kg
  levels of pS129-α-syn in the TX-insoluble fraction of ventral midbrain (WB): significantly reduced
[4]
  level of autophagic marker LC-311: up-regulated
  level of autophagy flux protein p62: down-regulated
[5]; α-syn PFF injected mice, normalized to pan-AKT
  pS473-AKT: reduced
[5]; α-syn PFF-injected mice, 2 mg/kg or 10 mg/kg
  Phosphorylation of PDK1 downstream targets PI3K, AKT, S6K, and mTOR: significantly reduced
[6]; [8]
  LC-311 induction compared with BYL719 (alpelisib) or BAY 80-6946 (copanlisib): more potent
  level of LC-311: increased
[6]; [9]
  LC3+/5G4+ co-localized vesicles: increased number
  number of LC3+ puncta: increased number

— patent US20260023070A1, “OPTOGENETIC ALPHA-SYNUCLEIN AGGREGATION SYSTEM-BASED COMPOUND SCREENING PLATFORM IN PD-hiPSC-mDA NEURONS” (The Johns Hopkins University, priority 2022, published 2026)
